In EP4786487A1, “PEPTIDE” (Peptidream Inc, priority 2023, dated 2025):
Like-named read-outs stand apart in the source and are kept apart here. Starred links: 1 amine or outer side, 2 acyl side, 3 side chain; linkers in the order of their positions; H or OH if unused. Positions of bridges follow the written chain, without caps; N, C: chain ends. Non-standard residues stand in square brackets, D forms with d. Residues, ends and D or L forms follow the SMILES beside them. *: point of attachment. Phe(3-OCH2COOH) = N[C@@H](Cc1cccc(OCC(=O)O)c1)C(=O)O; Phe(4-COOH) = N[C@@H](Cc1ccc(C(=O)O)cc1)C(=O)O; Gly(N(CH2)3COOH) = O=C(O)CCCNCC(=O)O; X1 = CCCCCCC[C@H](N[*:1])C(=O)[*:2]; NMeF = CN[C@@H](Cc1ccccc1)C(=O)O; NMeE = CN[C@@H](CCC(=O)O)C(=O)O; NMeA = CN[C@@H](C)C(=O)O; X9 = NC(=O)CC1CCN(*)CC1; Sar = CNCC(=O)O

How the values were obtained:
Format in all cases: cell-based
GDF-11 = molecular target: T1, GDF-11 (Homo sapiens, UniProt O95390); assay: Reporter gene assay for myostatin signaling in HepG2 cell line, Evaluation Procedure (1), GDF-11 inhibition; settings: read-out: IC50 (Luciferase) GDF-11 HepG2
T1 construct: purchased R&D systems 1958-GD-G8/CF
T1 sequence (O95390 299-407): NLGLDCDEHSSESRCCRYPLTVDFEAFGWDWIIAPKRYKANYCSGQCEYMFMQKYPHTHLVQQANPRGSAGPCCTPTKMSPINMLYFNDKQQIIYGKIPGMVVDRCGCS
Method: (§1) In this Example, the in vitro myostatin inhibitory effects of the peptides synthesized in Examples 1 and 2 were evaluated using a reporter gene assay for myostatin signaling in HepG2 cell line.
(§2) HepG2 cell line (HB-8065, ATCC) cultured in EMEM (055-08975, WAKO Industries) containing 10% FBS (10270106, Gibco) and 50 µg/mL gentamicin (11980-14, Nacalai Tesque) was seeded in 96-well plates (167008, Thermo) at 2.0 × 10^4 cells/well and incubated in a CO2 incubator (37°C, 5% CO2) for 24 hours. The pGL3(CAGA)12-luc plasmid, namely a pGL3 vector (E1751, Promega) having a luciferase gene inserted downstream of a promoter sequence with 12 CAGA repeats attached, was added to the wells along with a transfection reagent (X-treamGENE9 DNA Transfection Reagent, 6365809001, Roche) at a concentration of 0.04 µg/well. The cell line was cultured in a CO2 incubator (37°C, 5% CO2) for 24 hours for transfection. The medium was discarded and replaced with EMEM containing 50 µL/well of 0.1% bovine serum albumin (A7030, Sigma) and 50 µg/mL gentamicin, and incubated in a CO2 incubator (37°C, 5% CO2) for 2 hours.
(§3) Myostatin (788-G8/C, R&D systems) or GDF-11 (1958-GD-G8/CF, R&D systems) was added so that the final concentrations were those listed in Table 5.
(§4) A 4-fold dilution series of various peptides synthesized in Examples 1 and 2 was added to achieve 0.006-100 nmol/L (myostatin inhibition) and 0.12-2000 nmol/L (GDF-11 inhibition). At this time, blank wells, in which neither myostatin, GDF-11, nor each peptide was added, were also prepared and incubated in a CO2 incubator (37°C, 5% CO2) for 20 to 24 hours.
(§5) The medium containing the cells was removed, and a mixture containing PBS (14190144, Thermo) and a chromogenic substrate One-Glo Luciferase Assay System (E6120, Promega) at a ratio of 1:1 was added to each well at 100 µL/well. This was stirred with a plate shaker for 5 min and transferred to a 384-well plate (3570, Corning) at a volume of 20 µL/well.
(§6) The plate was centrifuged at 1,000 × g for 1 min and the luminescence signal (700 nm luminescence) was measured using a plate reader (Envision 2104, PerkinElmer). Based on the measured values, IC50 values of the peptides were calculated using software (Prism 9, GraphPad). […]
(§7) In this Example, the in vitro myostatin inhibitory effects of the peptides synthesized in Examples 10 and 11 were evaluated according to the Evaluation Procedure (1) in Example 3.

Myostatin [1] = assay: Reporter gene assay for myostatin signaling in HepG2 cell line, Evaluation Procedure (1), myostatin inhibition; settings: GDF-11 IC50 versus Myostatin IC50
Method: as §1, §2, §3, §4, §5, §6, §7

Myostatin [2] = molecular target: T2, Myostatin (Homo sapiens, UniProt O14793); assay: as above; settings: read-out: IC50 (Luciferase) Myostatin HepG2
T2 construct: active myostatin (also called mature myostatin) is a homodimer consisting of two C-terminal growth factor domains; purchased R&D systems 788-G8/CF
T2 sequence (O14793 267-375): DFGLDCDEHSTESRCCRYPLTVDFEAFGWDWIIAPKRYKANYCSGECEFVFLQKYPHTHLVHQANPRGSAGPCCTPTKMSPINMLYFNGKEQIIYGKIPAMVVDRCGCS
Method: as §1, §2, §3, §4, §5, §6, §7

SMILES | IC50 (GDF-11; Method A: GDF-11 10 ng/mL) [nM] | Selectivity (Myostatin [1]; Method A) | IC50 (Myostatin [2]; Method A: Myostatin 10 ng/mL) [nM] | IC50 (GDF-11; Method B: GDF-11 1 ng/mL) [nM] | Selectivity (Myostatin [1]; Method B) | IC50 (Myostatin [2]; Method B: Myostatin 1 ng/mL) [nM]
CC[C@H](C)[C@@H]1NC(=O)[C@H](Cc2ccccc2)N(C)C(=O)[C@H](Cc2ccc(O)cc2)NC(=O)[C@H](Cc2c[nH]c3ccccc23)NC(=O)[C@H](CO)NC(=O)CN(CCCC(=O)O)C(=O)CSC[C@H](C(=O)O)NC(=O)[C@H](Cc2ccccc2)N(C)C(=O)[C@H](C)N(C)C(=O)[C@H](CC(C)C)NC(=O)[C@H](Cc2ccccc2)N(C)C(=O)[C@H](CCCNC(=N)N)NC(=O)[C@H](Cc2ccc(C(=O)O)cc2)NC(=O)[C@H](Cc2ccc(O)cc2)NC(=O)[C@H](C)N(C)C1=O [Myostatin_99_v188] ({CH2CO}-[Gly(N(CH2)3COOH)]SWY[NMeF]I[NMeA]Y[Phe(4-COOH)]R[NMeF]L[NMeA][NMeF][dC]-OH; thioether N-15) | 911 | 16 | 55.4 | – | – | –
CCCCCCC[C@@H]1NC(=O)[C@H](Cc2ccccc2)N(C)C(=O)[C@H](CCCNC(=N)N)NC(=O)[C@H](Cc2ccc(C(=O)O)cc2)NC(=O)[C@H](Cc2cccc(OCC(=O)O)c2)NC(=O)CN(C)C(=O)[C@H]([C@@H](C)CC)NC(=O)[C@H](Cc2ccccc2)N(C)C(=O)[C@H](Cc2ccc(O)cc2)NC(=O)[C@H](Cc2c[nH]c3ccccc23)NC(=O)[C@H](C)NC(=O)[C@H](C)NC(=O)CSC[C@H](C(=O)N2CCC(CC(N)=O)CC2)NC(=O)[C@H](Cc2ccccc2)N(C)C(=O)[C@H](CCC(=O)O)N(C)C1=O [Myostatin_99_v315] ({CH2CO}-AAWY[NMeF]I[Sar][Phe(3-OCH2COOH)][Phe(4-COOH)]R[NMeF][X1][NMeE][NMeF][dC]-X9; thioether N-15) | – | – | – | 56.8 | 541.6 | 0.1
CCCCCCC[C@@H]1NC(=O)[C@H](Cc2ccccc2)N(C)C(=O)[C@H](CCCNC(=N)N)NC(=O)[C@H](Cc2ccc(C(=O)O)cc2)NC(=O)[C@H](Cc2cccc(OCC(=O)O)c2)NC(=O)CN(C)C(=O)[C@H]([C@@H](C)CC)NC(=O)[C@H](Cc2ccccc2)NC(=O)[C@H](Cc2ccc(O)cc2)NC(=O)[C@H](Cc2c[nH]c3ccccc23)NC(=O)[C@H](C)NC(=O)[C@H](C)NC(=O)CSC[C@H](C(=O)O)NC(=O)[C@H](Cc2ccccc2)N(C)C(=O)[C@H](C)N(C)C1=O [Myostatin_99_v209] ({CH2CO}-AAWYFI[Sar][Phe(3-OCH2COOH)][Phe(4-COOH)]R[NMeF][X1][NMeA][NMeF][dC]-OH; thioether N-15) | 794 | 147 | 5.4 | – | – | –
CCCCCCC[C@@H]1NC(=O)[C@H](Cc2ccccc2)N(C)C(=O)[C@H](CCCNC(=N)N)NC(=O)[C@H](Cc2ccc(C(=O)O)cc2)NC(=O)[C@H](Cc2cccc(OCC(=O)O)c2)NC(=O)CN(C)C(=O)[C@H]([C@@H](C)CC)NC(=O)[C@H](Cc2ccccc2)N(C)C(=O)[C@H](Cc2ccc(O)cc2)NC(=O)[C@H](Cc2c[nH]c3ccccc23)NC(=O)[C@H](CO)NC(=O)CN(CCCC(=O)O)C(=O)CSC[C@H](C(=O)O)NC(=O)[C@H](Cc2ccccc2)N(C)C(=O)[C@H](C)N(C)C1=O [Myostatin_99_v161] ({CH2CO}-[Gly(N(CH2)3COOH)]SWY[NMeF]I[Sar][Phe(3-OCH2COOH)][Phe(4-COOH)]R[NMeF][X1][NMeA][NMeF][dC]-OH; thioether N-15) | 1240 | 151 | 8.2 | – | – | –
